Measured values reported in US20070010671A1, “Novel quinazoline derivatives and methods of treatment related to the use thereof” (priority 2003, published 2007).

Target: MCH receptor (Homo sapiens, UniProt Q99705)
Assay: High throughput functional screening FLIPR/FDSS6000: inhibition of MCH-evoked intracellular Ca2+ changes
Type: cell-based
Settings: class by percent of control at 10^-7 M or IC50
Outline: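 In a kinetic calcium-flux format, compounds were tested at various concentrations against 50 nM MCH. Fluo4-loaded cells expressing a constitutively active, non-endogenous receptor were imaged at 488/530 nm for 290 s after agonist addition.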

Row | SMILES | class
1 | CCc1cccc(CC)c1NC(=S)NC[C@H]1CC[C@@H](Nc2nc(N(C)C)c3ccccc3n2)CC1 [compound 674, N-(2,6-diethylphenyl)-N′-[(cis-4-{[4-(dimethylamino)quinazolin-2-yl]amino}cyclohexyl)methyl]thiourea] | 1 (Class 1: The value of percent of control at 10^−7 M was less than 40% or the value of IC50 was less than 50 nM.)
2 | CC(C)c1cccc(C(C)C)c1NC(=S)NC[C@H]1CC[C@@H](Nc2nc(N(C)C)c3ccccc3n2)CC1 [compound 675] | 2 (Class 2: The value of percent of control at 10^−7 M was from 40% to 60% or the value of IC50 was from 50 nM to 200 nM.)
3 | Cc1ccc(NC(=S)NC[C@H]2CC[C@@H](Nc3nc(N(C)C)c4ccccc4n3)CC2)c(Br)c1 [compound 676] | 3 (Class 3: The value of percent of control at 10^−7 M was more than 60% or the value of IC50 was more than 200 nM.)
4 | CN(C)c1nc(N[C@H]2CC[C@@H](CNC(=S)Nc3cc(C(F)(F)F)ccc3Cl)CC2)nc2ccccc12 [compound 677] | 3 (Class 3: The value of percent of control at 10^−7 M was more than 60% or the value of IC50 was more than 200 nM.)
5 | CN(C)c1nc(N[C@H]2CC[C@@H](CNC(=S)NCc3ccccc3Cl)CC2)nc2ccccc12 [compound 678] | 3 (Class 3: The value of percent of control at 10^−7 M was more than 60% or the value of IC50 was more than 200 nM.)
6 | CCc1cccc(C)c1NC(=S)NC[C@H]1CC[C@@H](Nc2nc(N(C)C)c3ccccc3n2)CC1 [compound 679] | 2 (Class 2: The value of percent of control at 10^−7 M was from 40% to 60% or the value of IC50 was from 50 nM to 200 nM.)
7 | CC(C)c1ccccc1NC(=S)NC[C@H]1CC[C@@H](Nc2nc(N(C)C)c3ccccc3n2)CC1 [compound 680, N-[(cis-4-{[4-(dimethylamino)quinazolin-2-yl]amino}cyclohexyl)methyl]-N′-(2-isopropylphenyl)thiourea] | 2 (Class 2: The value of percent of control at 10^−7 M was from 40% to 60% or the value of IC50 was from 50 nM to 200 nM.)
8 | CSc1cccc(NC(=S)NC[C@H]2CC[C@@H](Nc3nc(N(C)C)c4ccccc4n3)CC2)c1 [compound 681] | 3 (Class 3: The value of percent of control at 10^−7 M was more than 60% or the value of IC50 was more than 200 nM.)
9 | CN(C)c1nc(N[C@H]2CC[C@@H](CNC(=S)NCc3ccc(Cl)c(Cl)c3)CC2)nc2ccccc12 [compound 682] | 3 (Class 3: The value of percent of control at 10^−7 M was more than 60% or the value of IC50 was more than 200 nM.)
10 | COc1cc(NC(=S)NC[C@H]2CC[C@@H](Nc3nc(N(C)C)c4ccccc4n3)CC2)cc(OC)c1 [compound 683] | 3 (Class 3: The value of percent of control at 10^−7 M was more than 60% or the value of IC50 was more than 200 nM.)
11 | Cc1cc(C)cc(NC(=S)NC[C@H]2CC[C@@H](Nc3nc(N(C)C)c4ccccc4n3)CC2)c1 [compound 684] | 3 (Class 3: The value of percent of control at 10^−7 M was more than 60% or the value of IC50 was more than 200 nM.)
12 | CN(C)c1nc(N[C@H]2CC[C@@H](CNC(=S)Nc3cccc(OCc4ccccc4)c3)CC2)nc2ccccc12 [compound 685] | 3 (Class 3: The value of percent of control at 10^−7 M was more than 60% or the value of IC50 was more than 200 nM.)
13 | CN(C)c1nc(N[C@H]2CC[C@@H](CNC(=S)Nc3cccc(C(=O)O)c3)CC2)nc2ccccc12 [compound 686] | 3 (Class 3: The value of percent of control at 10^−7 M was more than 60% or the value of IC50 was more than 200 nM.)
14 | Cc1ccc(NC(=S)NC[C@H]2CC[C@@H](Nc3nc(N(C)C)c4ccccc4n3)CC2)cc1Cl [compound 687] | 3 (Class 3: The value of percent of control at 10^−7 M was more than 60% or the value of IC50 was more than 200 nM.)
15 | COC(=O)c1cccc(NC(=S)NC[C@H]2CC[C@@H](Nc3nc(N(C)C)c4ccccc4n3)CC2)c1 [compound 688] | 3 (Class 3: The value of percent of control at 10^−7 M was more than 60% or the value of IC50 was more than 200 nM.)
16 | CN(C)c1nc(N[C@H]2CC[C@@H](CNC(=S)NCCCc3ccccc3)CC2)nc2ccccc12 [compound 689] | 3 (Class 3: The value of percent of control at 10^−7 M was more than 60% or the value of IC50 was more than 200 nM.)
17 | CN(C)c1nc(N[C@H]2CC[C@@H](CNC(=S)Nc3ccc(OCc4ccccc4)cc3)CC2)nc2ccccc12 [compound 690] | 3 (Class 3: The value of percent of control at 10^−7 M was more than 60% or the value of IC50 was more than 200 nM.)
18 | Cc1cc(Br)cc(C)c1NC(=S)NC[C@H]1CC[C@@H](Nc2nc(N(C)C)c3ccccc3n2)CC1 [compound 691, N-(4-bromo-2,6-dimethylphenyl)-N′-[(cis-4-{[4-(dimethylamino)quinazolin-2-yl]amino}cyclohexyl)methyl]thiourea] | 1 (Class 1: The value of percent of control at 10^−7 M was less than 40% or the value of IC50 was less than 50 nM.)
19 | Cc1cc(Br)ccc1NC(=S)NC[C@H]1CC[C@@H](Nc2nc(N(C)C)c3ccccc3n2)CC1 [compound 692] | 3 (Class 3: The value of percent of control at 10^−7 M was more than 60% or the value of IC50 was more than 200 nM.)

Row | SMILES | class
20 | CN(C)c1nc(N[C@H]2CC[C@@H](CNC(=S)Nc3ccc(Br)cc3C(F)(F)F)CC2)nc2ccccc12 [compound 693, N-[4-bromo-2-(trifluoromethyl)phenyl]-N′-[(cis-4-{[4-(dimethylamino)quinazolin-2-yl]amino}cyclohexyl)methyl]thiourea] | 2 (Class 2: The value of percent of control at 10^−7 M was from 40% to 60% or the value of IC50 was from 50 nM to 200 nM.)
21 | Cc1cc(Cl)ccc1NC(=S)NC[C@H]1CC[C@@H](Nc2nc(N(C)C)c3ccccc3n2)CC1 [compound 694] | 3 (Class 3: The value of percent of control at 10^−7 M was more than 60% or the value of IC50 was more than 200 nM.)
22 | CN(C)c1nc(N[C@H]2CC[C@@H](CNC(=S)NCc3ccc(Cl)cc3)CC2)nc2ccccc12 [compound 695] | 3 (Class 3: The value of percent of control at 10^−7 M was more than 60% or the value of IC50 was more than 200 nM.)
23 | CCOC(=O)c1ccc(NC(=S)NC[C@H]2CC[C@@H](Nc3nc(N(C)C)c4ccccc4n3)CC2)cc1 [compound 696] | 3 (Class 3: The value of percent of control at 10^−7 M was more than 60% or the value of IC50 was more than 200 nM.)
24 | CN(C)c1nc(N[C@H]2CC[C@@H](CNC(=S)NCc3ccc(F)cc3)CC2)nc2ccccc12 [compound 698] | 3 (Class 3: The value of percent of control at 10^−7 M was more than 60% or the value of IC50 was more than 200 nM.)
25 | CC(C)c1ccc(NC(=S)NC[C@H]2CC[C@@H](Nc3nc(N(C)C)c4ccccc4n3)CC2)cc1 [compound 699] | 3 (Class 3: The value of percent of control at 10^−7 M was more than 60% or the value of IC50 was more than 200 nM.)
26 | COc1ccc(NC(=S)NC[C@H]2CC[C@@H](Nc3nc(N(C)C)c4ccccc4n3)CC2)c([N+](=O)[O-])c1 [compound 700] | 3 (Class 3: The value of percent of control at 10^−7 M was more than 60% or the value of IC50 was more than 200 nM.)
27 | COc1ccc(CNC(=S)NC[C@H]2CC[C@@H](Nc3nc(N(C)C)c4ccccc4n3)CC2)cc1 [compound 701] | 3 (Class 3: The value of percent of control at 10^−7 M was more than 60% or the value of IC50 was more than 200 nM.)
28 | COC(=O)c1ccc(NC(=S)NC[C@H]2CC[C@@H](Nc3nc(N(C)C)c4ccccc4n3)CC2)cc1 [compound 702] | 3 (Class 3: The value of percent of control at 10^−7 M was more than 60% or the value of IC50 was more than 200 nM.)
29 | Cc1ccc(NC(=S)NC[C@H]2CC[C@@H](Nc3nc(N(C)C)c4ccccc4n3)CC2)c([N+](=O)[O-])c1 [compound 703] | 3 (Class 3: The value of percent of control at 10^−7 M was more than 60% or the value of IC50 was more than 200 nM.)
30 | Cc1ccc(CNC(=S)NC[C@H]2CC[C@@H](Nc3nc(N(C)C)c4ccccc4n3)CC2)cc1 [compound 704] | 3 (Class 3: The value of percent of control at 10^−7 M was more than 60% or the value of IC50 was more than 200 nM.)
31 | CCCCc1ccc(NC(=S)NC[C@H]2CC[C@@H](Nc3nc(N(C)C)c4ccccc4n3)CC2)cc1 [compound 705] | 3 (Class 3: The value of percent of control at 10^−7 M was more than 60% or the value of IC50 was more than 200 nM.)
32 | COc1ccc(Cl)cc1NC(=S)NC[C@H]1CC[C@@H](Nc2nc(N(C)C)c3ccccc3n2)CC1 [compound 706] | 2 (Class 2: The value of percent of control at 10^−7 M was from 40% to 60% or the value of IC50 was from 50 nM to 200 nM.)
33 | CN(C)c1nc(N[C@H]2CC[C@@H](CNC(=S)NC(c3ccccc3)c3ccccc3)CC2)nc2ccccc12 [compound 708, N-[(cis-4-{[4-(dimethylamino)quinazolin-2-yl]amino}cyclohexyl)methyl]-N′-(diphenylmethyl)thiourea] | 2 (Class 2: The value of percent of control at 10^−7 M was from 40% to 60% or the value of IC50 was from 50 nM to 200 nM.)
34 | CN(C)c1nc(N[C@H]2CC[C@@H](CNC(=S)NC3CCCCCCCCCCC3)CC2)nc2ccccc12 [compound 709, N-cyclododecyl-N′-[(cis-4-{[4-(dimethylamino)quinazolin-2-yl]amino}cyclohexyl)methyl]thiourea] | 2 (Class 2: The value of percent of control at 10^−7 M was from 40% to 60% or the value of IC50 was from 50 nM to 200 nM.)
35 | CN(C)c1nc(N[C@H]2CC[C@@H](CNC(=S)NCC3CCCCC3)CC2)nc2ccccc12 [compound 710, N-(cyclohexylmethyl)-N′-[(cis-4-{[4-(dimethylamino)quinazolin-2-yl]amino}cyclohexyl)methyl]thiourea] | 2 (Class 2: The value of percent of control at 10^−7 M was from 40% to 60% or the value of IC50 was from 50 nM to 200 nM.)
36 | CN(C)c1nc(N[C@H]2CC[C@@H](CNC(=S)NC3CCCCCCC3)CC2)nc2ccccc12 [compound 711] | 3 (Class 3: The value of percent of control at 10^−7 M was more than 60% or the value of IC50 was more than 200 nM.)
37 | CN(C)c1nc(N[C@H]2CC[C@@H](CNC(=S)NC3CC3)CC2)nc2ccccc12 [compound 712] | 3 (Class 3: The value of percent of control at 10^−7 M was more than 60% or the value of IC50 was more than 200 nM.)
